According to ChEMBL document CHEMBL1155987, “2,3,4,5-Tetrahydro-1H-pyrido[2,3-b and e][1,4]diazepines as inhibitors of the bacterial enoyl ACP reductase, FabI” (Bioorg Med Chem Lett, 2009):
In brackets after ≈: the same amount, converted by molar mass. Activity calls are given as the source filed them. No cut-off for these calls is given here.

System: Staphylococcus aureus
Experiment: Antibacterial activity against Staphylococcus aureus 29213 infected neutropenic mouse thigh model assessed as change in CFU at 100 mg/kg, po after 24 hrs
Type: functional, organism-based
Parameters: dose 100 mg/kg
Conditions: not given

Structure (SMILES) | Activity
CN(Cc1cc2ccccc2n1C)C(=O)/C=C/c1cnc2c(c1)CNCC(=O)N2 | Active

Biological target: T1, Enoyl-[acyl-carrier-protein] reductase [NADH] FabI (Escherichia coli K-12, UniProt P0AEK4)
T1 sequence (P0AEK4 whole entry): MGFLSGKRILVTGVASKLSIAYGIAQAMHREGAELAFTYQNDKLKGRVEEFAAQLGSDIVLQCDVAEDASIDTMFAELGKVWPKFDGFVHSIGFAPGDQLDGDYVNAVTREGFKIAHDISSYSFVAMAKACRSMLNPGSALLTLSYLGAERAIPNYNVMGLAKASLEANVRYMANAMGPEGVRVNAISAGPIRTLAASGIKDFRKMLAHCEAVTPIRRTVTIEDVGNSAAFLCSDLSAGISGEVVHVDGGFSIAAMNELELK
Experiment: not given
Conditions: not given

Structure (SMILES) | IC50 [nM]
Cc1c(CN(C)C(=O)/C=C/c2cnc3c(c2)CNCCN3)oc2ccccc12 | 14
CN(Cc1cc2ccccc2n1C)C(=O)/C=C/c1cnc2c(c1)NCCC(=O)N2 | 136
Cc1c(CN(C)C(=O)/C=C/c2cnc3c(c2)CNC(=O)CCN3)oc2ccccc12 | 30
Cc1c(CN(C)C(=O)/C=C/c2cnc3c(c2)CNCC(=O)N3)oc2ccccc12 | 29
Cc1c(CN(C)C(=O)/C=C/c2cnc3c(c2)NCCC(=O)N3)oc2ccccc12 | 25
Cc1c(CN(C)C(=O)/C=C/c2cnc3c(c2)CCC(=O)N3)sc2ccccc12 | 64
Cc1c(CN(C)C(=O)/C=C/c2cnc3c(c2)NCCCN3)oc2ccccc12 | 12
Cc1c(CN(C)C(=O)/C=C/c2cnc3c(c2)CNCCN3)sc2ccccc12 | 9
Cc1c(CN(C)C(=O)/C=C/c2cnc3c(c2)CNCCCN3)oc2ccccc12 | 16
Cc1c(CN(C)C(=O)/C=C/c2cnc3c(c2)NCCC(=O)N3)[nH]c2ccccc12 | 840
Cc1c(CN(C)C(=O)/C=C/c2cnc3c(c2)CNC(=O)CN3)oc2ccccc12 | 39
Cc1c(CN(C)C(=O)/C=C/c2cnc3c(c2)NCCC(=O)N3)sc2ccc(F)cc12 | 25
CN(Cc1cc2ccccc2n1C)C(=O)/C=C/c1cnc2c(c1)CNCC(=O)N2 | 330
CN(Cc1cc2ccccc2n1C)C(=O)/C=C/c1cnc2c(c1)CCC(=O)N2 | 150

System: not listed separately
Experiment: physchem
Conditions: aqueous, pH 4
Description: Aqueous solubility at pH 4.0

Structure (SMILES) | solubility [µg/mL]
Cc1c(CN(C)C(=O)/C=C/c2cnc3c(c2)CNCCN3)oc2ccccc12 | > 650
CN(Cc1cc2ccccc2n1C)C(=O)/C=C/c1cnc2c(c1)NCCC(=O)N2 | 25 (≈ 64.2 µM)
Cc1c(CN(C)C(=O)/C=C/c2cnc3c(c2)CNC(=O)CCN3)oc2ccccc12 | 46 (≈ 114 µM)
Cc1c(CN(C)C(=O)/C=C/c2cnc3c(c2)CNCC(=O)N3)oc2ccccc12 | 170 (≈ 435 µM)
Cc1c(CN(C)C(=O)/C=C/c2cnc3c(c2)NCCC(=O)N3)oc2ccccc12 | 1.5 (≈ 3.84 µM)
Cc1c(CN(C)C(=O)/C=C/c2cnc3c(c2)CCC(=O)N3)sc2ccccc12 | 0.2 (≈ 0.511 µM)
Cc1c(CN(C)C(=O)/C=C/c2cnc3c(c2)NCCCN3)oc2ccccc12 | > 100
Cc1c(CN(C)C(=O)/C=C/c2cnc3c(c2)CNCCN3)sc2ccccc12 | 100 (≈ 255 µM)
Cc1c(CN(C)C(=O)/C=C/c2cnc3c(c2)CNCCCN3)oc2ccccc12 | 1400 (≈ 3590 µM)
Cc1c(CN(C)C(=O)/C=C/c2cnc3c(c2)NCCC(=O)N3)[nH]c2ccccc12 | 39 (≈ 100 µM)
CN1CC(=O)Nc2ncc(/C=C/C(=O)N(C)Cc3cc4ccccc4n3C)cc2C1 | 73 (≈ 181 µM)
Cc1c(CN(C)C(=O)/C=C/c2cnc3c(c2)NCCC(=O)N3)sc2ccc(F)cc12 | 31 (≈ 73 µM)
CN(Cc1cc2ccccc2n1C)C(=O)/C=C/c1cnc2c(c1)CNCC(=O)N2 | > 100
CN(Cc1cc2ccccc2n1C)C(=O)/C=C/c1cnc2c(c1)CCC(=O)N2 | 6.2 (≈ 16.6 µM)

System: not listed separately
Experiment: physchem
Conditions: aqueous, pH 7.4
Description: Aqueous solubility at pH 7.4

Structure (SMILES) | solubility [µg/mL]
Cc1c(CN(C)C(=O)/C=C/c2cnc3c(c2)CNCCN3)oc2ccccc12 | 440 (≈ 1170 µM)
CN(Cc1cc2ccccc2n1C)C(=O)/C=C/c1cnc2c(c1)NCCC(=O)N2 | 33 (≈ 84.7 µM)
Cc1c(CN(C)C(=O)/C=C/c2cnc3c(c2)CNC(=O)CCN3)oc2ccccc12 | 17 (≈ 42 µM)
Cc1c(CN(C)C(=O)/C=C/c2cnc3c(c2)CNCC(=O)N3)oc2ccccc12 | 20 (≈ 51.2 µM)
Cc1c(CN(C)C(=O)/C=C/c2cnc3c(c2)NCCC(=O)N3)oc2ccccc12 | 1.7 (≈ 4.35 µM)
Cc1c(CN(C)C(=O)/C=C/c2cnc3c(c2)CCC(=O)N3)sc2ccccc12 | 0.3 (≈ 0.766 µM)
Cc1c(CN(C)C(=O)/C=C/c2cnc3c(c2)NCCCN3)oc2ccccc12 | 29 (≈ 77 µM)
Cc1c(CN(C)C(=O)/C=C/c2cnc3c(c2)CNCCN3)sc2ccccc12 | 33 (≈ 84.1 µM)
Cc1c(CN(C)C(=O)/C=C/c2cnc3c(c2)CNCCCN3)oc2ccccc12 | 210 (≈ 538 µM)
Cc1c(CN(C)C(=O)/C=C/c2cnc3c(c2)NCCC(=O)N3)[nH]c2ccccc12 | 37 (≈ 95 µM)
CN1CC(=O)Nc2ncc(/C=C/C(=O)N(C)Cc3cc4ccccc4n3C)cc2C1 | 9.7 (≈ 24 µM)
Cc1c(CN(C)C(=O)/C=C/c2cnc3c(c2)NCCC(=O)N3)sc2ccc(F)cc12 | 38 (≈ 89.5 µM)
CN(Cc1cc2ccccc2n1C)C(=O)/C=C/c1cnc2c(c1)CNCC(=O)N2 | 82 (≈ 211 µM)
CN(Cc1cc2ccccc2n1C)C(=O)/C=C/c1cnc2c(c1)CCC(=O)N2 | 5.6 (≈ 15 µM)

System: Staphylococcus aureus
Experiment: microbe, parasite or virus in culture
Conditions: 29213
Description: Antibacterial activity against Staphylococcus aureus 29213 by microdilution method

Structure (SMILES) | MIC [µg/mL]
Cc1c(CN(C)C(=O)/C=C/c2cnc3c(c2)CNCCN3)oc2ccccc12 | 0.063 (≈ 0.167 µM)
CN(Cc1cc2ccccc2n1C)C(=O)/C=C/c1cnc2c(c1)NCCC(=O)N2 | 0.25 (≈ 0.642 µM)
Cc1c(CN(C)C(=O)/C=C/c2cnc3c(c2)CNC(=O)CCN3)oc2ccccc12 | ≤ 0.016
Cc1c(CN(C)C(=O)/C=C/c2cnc3c(c2)CNCC(=O)N3)oc2ccccc12 | ≤ 0.063
Cc1c(CN(C)C(=O)/C=C/c2cnc3c(c2)NCCC(=O)N3)oc2ccccc12 | ≤ 0.016
Cc1c(CN(C)C(=O)/C=C/c2cnc3c(c2)CCC(=O)N3)sc2ccccc12 | 0.125 (≈ 0.319 µM)
Cc1c(CN(C)C(=O)/C=C/c2cnc3c(c2)NCCCN3)oc2ccccc12 | ≤ 0.016
Cc1c(CN(C)C(=O)/C=C/c2cnc3c(c2)CNCCN3)sc2ccccc12 | ≤ 0.016
Cc1c(CN(C)C(=O)/C=C/c2cnc3c(c2)CNCCCN3)oc2ccccc12 | 0.25 (≈ 0.64 µM)
Cc1c(CN(C)C(=O)/C=C/c2cnc3c(c2)NCCC(=O)N3)[nH]c2ccccc12 | 0.031 (≈ 0.0796 µM)
Cc1c(CN(C)C(=O)/C=C/c2cnc3c(c2)CNC(=O)CN3)oc2ccccc12 | ≤ 0.063
CN1CC(=O)Nc2ncc(/C=C/C(=O)N(C)Cc3cc4ccccc4n3C)cc2C1 | 4 (≈ 9.91 µM)
Cc1c(CN(C)C(=O)/C=C/c2cnc3c(c2)NCCC(=O)N3)sc2ccc(F)cc12 | ≤ 0.016
CN(Cc1cc2ccccc2n1C)C(=O)/C=C/c1cnc2c(c1)CNCC(=O)N2 | 0.125 (≈ 0.321 µM)
CN(Cc1cc2ccccc2n1C)C(=O)/C=C/c1cnc2c(c1)CCC(=O)N2 | ≤ 0.016

System: Staphylococcus aureus
Experiment: microbe, parasite or virus in culture
Conditions: 43300
Description: Antibacterial activity against methicillin-resistant Staphylococcus aureus 43300 by microdilution method

Structure (SMILES) | MIC [µg/mL]
Cc1c(CN(C)C(=O)/C=C/c2cnc3c(c2)CNCCN3)oc2ccccc12 | 0.063 (≈ 0.167 µM)
CN(Cc1cc2ccccc2n1C)C(=O)/C=C/c1cnc2c(c1)NCCC(=O)N2 | 0.125 (≈ 0.321 µM)
Cc1c(CN(C)C(=O)/C=C/c2cnc3c(c2)CNC(=O)CCN3)oc2ccccc12 | 0.031 (≈ 0.0766 µM)
Cc1c(CN(C)C(=O)/C=C/c2cnc3c(c2)CNCC(=O)N3)oc2ccccc12 | ≤ 0.063
Cc1c(CN(C)C(=O)/C=C/c2cnc3c(c2)NCCC(=O)N3)oc2ccccc12 | ≤ 0.016
Cc1c(CN(C)C(=O)/C=C/c2cnc3c(c2)CCC(=O)N3)sc2ccccc12 | ≤ 0.063
Cc1c(CN(C)C(=O)/C=C/c2cnc3c(c2)NCCCN3)oc2ccccc12 | 0.031 (≈ 0.0823 µM)
Cc1c(CN(C)C(=O)/C=C/c2cnc3c(c2)CNCCN3)sc2ccccc12 | 0.031 (≈ 0.079 µM)
Cc1c(CN(C)C(=O)/C=C/c2cnc3c(c2)CNCCCN3)oc2ccccc12 | 0.5 (≈ 1.28 µM)
Cc1c(CN(C)C(=O)/C=C/c2cnc3c(c2)NCCC(=O)N3)[nH]c2ccccc12 | 0.063 (≈ 0.162 µM)
Cc1c(CN(C)C(=O)/C=C/c2cnc3c(c2)CNC(=O)CN3)oc2ccccc12 | ≤ 0.063
CN1CC(=O)Nc2ncc(/C=C/C(=O)N(C)Cc3cc4ccccc4n3C)cc2C1 | 0.5 (≈ 1.24 µM)
Cc1c(CN(C)C(=O)/C=C/c2cnc3c(c2)NCCC(=O)N3)sc2ccc(F)cc12 | ≤ 0.016
CN(Cc1cc2ccccc2n1C)C(=O)/C=C/c1cnc2c(c1)CNCC(=O)N2 | 0.125 (≈ 0.321 µM)
CN(Cc1cc2ccccc2n1C)C(=O)/C=C/c1cnc2c(c1)CCC(=O)N2 | 0.031 (≈ 0.0828 µM)

System: Staphylococcus aureus
Experiment: microbe, parasite or virus in culture
Conditions: 934335
Description: Antibacterial activity against triclosan-resistant Staphylococcus aureus 934335 by microdilution method

Structure (SMILES) | MIC [µg/mL]
Cc1c(CN(C)C(=O)/C=C/c2cnc3c(c2)CNCCN3)oc2ccccc12 | 4 (≈ 10.6 µM)
CN(Cc1cc2ccccc2n1C)C(=O)/C=C/c1cnc2c(c1)NCCC(=O)N2 | 1 (≈ 2.57 µM)
Cc1c(CN(C)C(=O)/C=C/c2cnc3c(c2)CNC(=O)CCN3)oc2ccccc12 | 0.5 (≈ 1.24 µM)
Cc1c(CN(C)C(=O)/C=C/c2cnc3c(c2)CNCC(=O)N3)oc2ccccc12 | 0.125 (≈ 0.32 µM)
Cc1c(CN(C)C(=O)/C=C/c2cnc3c(c2)NCCC(=O)N3)oc2ccccc12 | ≤ 0.016
Cc1c(CN(C)C(=O)/C=C/c2cnc3c(c2)CCC(=O)N3)sc2ccccc12 | 4 (≈ 10.2 µM)
Cc1c(CN(C)C(=O)/C=C/c2cnc3c(c2)NCCCN3)oc2ccccc12 | 0.5 (≈ 1.33 µM)
Cc1c(CN(C)C(=O)/C=C/c2cnc3c(c2)CNCCN3)sc2ccccc12 | 2 (≈ 5.1 µM)
Cc1c(CN(C)C(=O)/C=C/c2cnc3c(c2)CNCCCN3)oc2ccccc12 | 8 (≈ 20.5 µM)
Cc1c(CN(C)C(=O)/C=C/c2cnc3c(c2)NCCC(=O)N3)[nH]c2ccccc12 | 2 (≈ 5.14 µM)
Cc1c(CN(C)C(=O)/C=C/c2cnc3c(c2)CNC(=O)CN3)oc2ccccc12 | 4 (≈ 10.2 µM)
CN1CC(=O)Nc2ncc(/C=C/C(=O)N(C)Cc3cc4ccccc4n3C)cc2C1 | 8 (≈ 19.8 µM)
Cc1c(CN(C)C(=O)/C=C/c2cnc3c(c2)NCCC(=O)N3)sc2ccc(F)cc12 | 0.125 (≈ 0.294 µM)
CN(Cc1cc2ccccc2n1C)C(=O)/C=C/c1cnc2c(c1)CNCC(=O)N2 | 1 (≈ 2.57 µM)
CN(Cc1cc2ccccc2n1C)C(=O)/C=C/c1cnc2c(c1)CCC(=O)N2 | 0.5 (≈ 1.34 µM)

System: Escherichia coli
Experiment: microbe, parasite or virus in culture
Conditions: not given

Structure (SMILES) | MIC [µg/mL]
Cc1c(CN(C)C(=O)/C=C/c2cnc3c(c2)CNCCN3)oc2ccccc12 | ≤ 0.063
CN(Cc1cc2ccccc2n1C)C(=O)/C=C/c1cnc2c(c1)NCCC(=O)N2 | 1 (≈ 2.57 µM)
Cc1c(CN(C)C(=O)/C=C/c2cnc3c(c2)CNC(=O)CCN3)oc2ccccc12 | ≤ 0.063
Cc1c(CN(C)C(=O)/C=C/c2cnc3c(c2)CNCC(=O)N3)oc2ccccc12 | ≤ 0.063
Cc1c(CN(C)C(=O)/C=C/c2cnc3c(c2)NCCC(=O)N3)oc2ccccc12 | ≤ 0.063
Cc1c(CN(C)C(=O)/C=C/c2cnc3c(c2)CCC(=O)N3)sc2ccccc12 | 4 (≈ 10.2 µM)
Cc1c(CN(C)C(=O)/C=C/c2cnc3c(c2)NCCCN3)oc2ccccc12 | ≤ 0.063
Cc1c(CN(C)C(=O)/C=C/c2cnc3c(c2)CNCCN3)sc2ccccc12 | ≤ 0.063
Cc1c(CN(C)C(=O)/C=C/c2cnc3c(c2)CNCCCN3)oc2ccccc12 | 8 (≈ 20.5 µM)
Cc1c(CN(C)C(=O)/C=C/c2cnc3c(c2)NCCC(=O)N3)[nH]c2ccccc12 | 4 (≈ 10.3 µM)
Cc1c(CN(C)C(=O)/C=C/c2cnc3c(c2)CNC(=O)CN3)oc2ccccc12 | ≤ 0.063
CN1CC(=O)Nc2ncc(/C=C/C(=O)N(C)Cc3cc4ccccc4n3C)cc2C1 | > 32
Cc1c(CN(C)C(=O)/C=C/c2cnc3c(c2)NCCC(=O)N3)sc2ccc(F)cc12 | 1 (≈ 2.36 µM)
CN(Cc1cc2ccccc2n1C)C(=O)/C=C/c1cnc2c(c1)CNCC(=O)N2 | 1 (≈ 2.57 µM)
CN(Cc1cc2ccccc2n1C)C(=O)/C=C/c1cnc2c(c1)CCC(=O)N2 | ≤ 0.063
